Type in all cases: biochemical
Experiment [1] has as its target T1, CLK2 (Cdc2-like kinase 2) (Homo sapiens, UniProt P49760).
T1 construct: commercial enzyme of Thermo Fisher SelectScreen service
The experiment is described as follows: Z'LYTE FRET peptide kinase assay. An excerpt:
Z'LYTE FRET peptide kinase assay on CLK2 (Cdc2-like kinase 2)

The target of the next experiment is T2, CLK3 (Homo sapiens, UniProt P49761).
T2 construct: kinase selectivity panel enzyme
The experiment is described as follows: kinase selectivity panel.

For experiment [2], the target named is T3, TTK (Threonine tyrosine kinase; Monopolar Spindle 1, Mps1) (Homo sapiens, UniProt P33981).
T3 construct: kinase selectivity panel enzyme
T3 sequence (P33981 1-857): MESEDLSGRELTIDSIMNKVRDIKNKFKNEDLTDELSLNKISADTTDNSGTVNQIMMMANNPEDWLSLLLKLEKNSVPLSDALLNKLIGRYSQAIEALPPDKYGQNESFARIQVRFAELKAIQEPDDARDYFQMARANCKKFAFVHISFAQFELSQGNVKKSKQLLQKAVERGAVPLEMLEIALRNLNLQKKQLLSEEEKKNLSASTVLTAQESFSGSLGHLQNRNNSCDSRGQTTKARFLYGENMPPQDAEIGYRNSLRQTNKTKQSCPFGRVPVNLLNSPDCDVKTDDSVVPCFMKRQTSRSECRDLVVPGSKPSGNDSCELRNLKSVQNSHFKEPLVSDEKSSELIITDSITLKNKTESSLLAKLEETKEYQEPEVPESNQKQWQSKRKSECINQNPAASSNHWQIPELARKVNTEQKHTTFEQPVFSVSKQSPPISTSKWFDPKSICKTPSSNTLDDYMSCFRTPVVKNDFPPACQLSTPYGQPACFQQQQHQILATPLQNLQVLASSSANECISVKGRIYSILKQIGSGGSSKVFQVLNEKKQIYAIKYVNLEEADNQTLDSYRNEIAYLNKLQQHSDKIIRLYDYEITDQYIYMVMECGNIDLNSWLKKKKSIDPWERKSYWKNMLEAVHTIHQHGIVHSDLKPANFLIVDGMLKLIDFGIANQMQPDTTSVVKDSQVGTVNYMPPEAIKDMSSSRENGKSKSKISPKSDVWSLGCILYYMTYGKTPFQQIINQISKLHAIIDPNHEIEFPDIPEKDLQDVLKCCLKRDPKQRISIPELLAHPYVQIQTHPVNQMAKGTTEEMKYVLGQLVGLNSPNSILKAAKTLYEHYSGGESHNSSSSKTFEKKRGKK
Briefly: kinase selectivity panel.

The structures appear in SMILES notation. Read-outs that look alike come from different tables or passages of the source.

T1 sequence (P49760 whole entry): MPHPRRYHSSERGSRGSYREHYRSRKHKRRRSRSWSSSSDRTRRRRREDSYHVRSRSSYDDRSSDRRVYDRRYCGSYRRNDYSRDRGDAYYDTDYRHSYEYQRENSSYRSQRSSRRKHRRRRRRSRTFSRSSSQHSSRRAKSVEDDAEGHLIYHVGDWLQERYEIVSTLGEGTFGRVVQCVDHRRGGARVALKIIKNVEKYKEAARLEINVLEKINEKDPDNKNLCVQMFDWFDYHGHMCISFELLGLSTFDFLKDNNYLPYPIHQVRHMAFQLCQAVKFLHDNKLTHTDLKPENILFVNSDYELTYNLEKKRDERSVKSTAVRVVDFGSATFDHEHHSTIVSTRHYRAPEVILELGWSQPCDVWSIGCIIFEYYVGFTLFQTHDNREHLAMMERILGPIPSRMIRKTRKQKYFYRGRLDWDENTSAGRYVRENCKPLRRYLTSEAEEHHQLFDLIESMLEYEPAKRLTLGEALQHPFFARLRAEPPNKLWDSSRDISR
T2 sequence (P49761 whole entry): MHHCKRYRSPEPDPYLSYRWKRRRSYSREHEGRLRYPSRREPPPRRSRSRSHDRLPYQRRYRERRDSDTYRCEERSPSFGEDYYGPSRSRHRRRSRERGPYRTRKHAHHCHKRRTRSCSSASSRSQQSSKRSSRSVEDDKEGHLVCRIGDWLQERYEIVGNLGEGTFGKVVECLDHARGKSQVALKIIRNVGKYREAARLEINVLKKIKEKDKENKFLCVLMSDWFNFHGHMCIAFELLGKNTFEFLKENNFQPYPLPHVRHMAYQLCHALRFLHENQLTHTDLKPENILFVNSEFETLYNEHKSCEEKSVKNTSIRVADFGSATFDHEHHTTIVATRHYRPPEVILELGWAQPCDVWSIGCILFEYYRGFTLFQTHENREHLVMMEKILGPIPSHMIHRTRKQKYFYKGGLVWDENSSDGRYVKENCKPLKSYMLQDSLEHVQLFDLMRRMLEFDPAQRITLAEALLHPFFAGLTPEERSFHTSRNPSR

Turning to `CSc1nc(Cl)cc(Sc2nc(N)nc3nc[nH]c23)n1` [compound 51564, 51564], the concentration for half-maximal inhibition (IC50) in experiment [1] (ATP and peptide substrate, 1% DMSO, room temperature, 60 min) was 1330 nM. As to `Nc1ncnc2oc(-c3ccccc3)c(-c3ccccc3)c12` [compound 153298, 153298], half-maximal inhibition in experiment [1] (IC50) required 2240 nM. With `CC(c1ccccc1)n1c2ccccc2c2c(N)ncnc21` (centres unmarked) [compound 670551, Compound 670551], the inhibition at 1 µM on CLK3 was 46%; in experiment [2] it was 43%. The IC50 in experiment [1] is 620 nM.

In general, IC50 refers to the concentration needed to halve the response being measured. A low value points to greater potency. The inhibition is the share of the control response that was lost under treatment.
